The record followed here is ChEMBL document CHEMBL4706610, “Hydroxypyridinone-Based Iron Chelators with Broad-Ranging Biological Activities” (J Med Chem, 2020).

Values after ≈ are worked out from the molar mass of the structure shown.

The nature of series [1]: Partition coefficient, log P of the compound. The conditions noted are these: octanol/water. Format: physicochemical.
Series [2] in a line: Electrochemical behavior of the compound assessed as redox potential. Format: physicochemical.
Series [3] can be described thus: Octanol-buffer partition coefficient, logP of the compound at pH 7.4 by shake flask method. Format: physicochemical.
Series [4] has as its target T1, Amyloid-beta precursor protein (Homo sapiens, UniProt P05067). Description: Inhibition of self-induced amyloid beta (1 to 42) (unknown origin) aggregation measured after 24 hrs by ThT fluorescence assay relative to control. The following applies: concentration not given here.
A short description of series [5]: Antioxidant activity assessed as DPPH radical scavenging activity incubated for 30 mins by absorbance method. The series is classed as functional. (In general: DPPH is a stable violet radical that fades when it is reduced.)
In series [6] the target is T2, Acetylcholinesterase (Electrophorus electricus, UniProt O42275). Briefly: Inhibition of electric eel AChE using acetylthiocholine iodide as substrate preincubated for 15 mins followed by substrate addition and measured for 5 mins by Ellman's reagent based UV-Vis spectrophotometric method. In general terms: In Ellman's method for cholinesterases, released thiocholine reacts with DTNB.
T2 sequence (O42275 whole entry): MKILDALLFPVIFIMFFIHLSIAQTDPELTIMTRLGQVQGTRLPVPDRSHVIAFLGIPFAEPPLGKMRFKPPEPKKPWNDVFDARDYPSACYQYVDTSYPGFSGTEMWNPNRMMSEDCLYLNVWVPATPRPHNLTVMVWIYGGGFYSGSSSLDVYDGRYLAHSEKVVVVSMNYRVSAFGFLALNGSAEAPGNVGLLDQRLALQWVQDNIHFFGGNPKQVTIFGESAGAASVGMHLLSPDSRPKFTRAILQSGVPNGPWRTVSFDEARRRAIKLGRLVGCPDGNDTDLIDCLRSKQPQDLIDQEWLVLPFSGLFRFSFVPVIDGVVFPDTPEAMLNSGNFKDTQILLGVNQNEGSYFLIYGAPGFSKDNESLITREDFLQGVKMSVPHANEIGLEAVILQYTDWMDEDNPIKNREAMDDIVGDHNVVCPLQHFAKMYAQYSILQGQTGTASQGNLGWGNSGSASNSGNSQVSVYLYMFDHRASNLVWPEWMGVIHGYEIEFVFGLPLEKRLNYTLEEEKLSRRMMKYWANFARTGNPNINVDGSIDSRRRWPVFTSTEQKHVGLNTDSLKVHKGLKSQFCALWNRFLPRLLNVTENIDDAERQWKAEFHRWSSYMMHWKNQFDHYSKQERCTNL

Series [7] in a line: Binding affinity to Fe3+ assessed as pFe by UV-Vis spectrophotometric method.
The nature of series [8]: Binding affinity to iron assessed as pFe3+ at pH 7.4 by spectrophotometric method.
The target in series [9] is T2, Acetylcholinesterase. Description: Inhibition of electric eel AChE using acetylthiocholine iodide as substrate preincubated for 15 mins followed by substrate addition and measured for 5 mins by Ellman's method.
The next series relates to Pseudomonas aeruginosa. Description: Antibacterial activity against Pseudomonas aeruginosa incubated for 2 hrs followed by sterilized TSB addition and measured after 24 hrs by visual inspection. Format: functional. The conditions noted are these: time 26 hrs.
For series [10], the system named is Plasmodium falciparum. Briefly: Antiplasmodial activity against chloroquine-sensitive Plasmodium falciparum 3D7 incubated for 48 hrs by parasite lactate dehydrogenase assay. The series is classed as functional, organism-based. The following applies: 3D7, 48 h.
In series [11] the test system is Plasmodium falciparum. Briefly: Antiplasmodial activity against chloroquine-sensitive Plasmodium falciparum D10 incubated for 48 hrs by parasite lactate dehydrogenase assay. The conditions noted are these: D10, 48 h. The series is classed as functional, organism-based.
Series [12] relates to Plasmodium falciparum. Description: Antiplasmodial activity against chloroquine-resistant Plasmodium falciparum Dd2 incubated for 48 hrs by parasite lactate dehydrogenase assay. Format: functional, organism-based. The conditions noted are these: Dd2, 48 h.
The test system of series [13] is Plasmodium falciparum. Description: Antiplasmodial activity against chloroquine-resistant Plasmodium falciparum K1 incubated for 48 hrs by parasite lactate dehydrogenase assay. Format: functional, organism-based. The following applies: K1, 48 h.
Series [14] can be described thus: Antioxidant activity assessed as DPPH radical scavenging activity incubated for 30 mins by UV-Vis spectrophotometric method. Format: functional.
The nature of series [15]: Binding affinity to iron assessed as pFe3+.
Another series has as its system Escherichia coli. Description: Antibacterial activity against Escherichia coli incubated for 2 hrs followed by sterilized TSB addition and measured after 24 hrs by visual inspection. The series is classed as functional. The following applies: time 26 hrs.
The subject of the next series is Bacillus subtilis. Briefly: Antibacterial activity against Bacillus subtilis incubated for 2 hrs followed by sterilized TSB addition and measured after 24 hrs by visual inspection. Format: functional. The conditions noted are these: time 26 hrs.
In a further series the test system is Staphylococcus aureus. Description: Antibacterial activity against Staphylococcus aureus incubated for 2 hrs followed by sterilized TSB addition and measured after 24 hrs by visual inspection. The following applies: time 26 hrs. The series is classed as functional.
The target of series [16] is T2, Acetylcholinesterase. Briefly: Inhibition of electric eel AChE using acetylthiocholine iodide as substrate preincubated for 5 mins followed by substrate addition and measured after 2 mins by Ellman's method.
The target of series [17] is Acetylcholinesterase (Torpedo californica, UniProt P04058). Description: Inhibition of Torpedo californica AChE using acetylthiocholine iodide as substrate preincubated for 15 mins followed by substrate addition and measured for 5 mins. Details: species or system Tetronarce californica.
Sequence of Acetylcholinesterase (Torpedo californica, UniProt P04058) (P04058 whole entry): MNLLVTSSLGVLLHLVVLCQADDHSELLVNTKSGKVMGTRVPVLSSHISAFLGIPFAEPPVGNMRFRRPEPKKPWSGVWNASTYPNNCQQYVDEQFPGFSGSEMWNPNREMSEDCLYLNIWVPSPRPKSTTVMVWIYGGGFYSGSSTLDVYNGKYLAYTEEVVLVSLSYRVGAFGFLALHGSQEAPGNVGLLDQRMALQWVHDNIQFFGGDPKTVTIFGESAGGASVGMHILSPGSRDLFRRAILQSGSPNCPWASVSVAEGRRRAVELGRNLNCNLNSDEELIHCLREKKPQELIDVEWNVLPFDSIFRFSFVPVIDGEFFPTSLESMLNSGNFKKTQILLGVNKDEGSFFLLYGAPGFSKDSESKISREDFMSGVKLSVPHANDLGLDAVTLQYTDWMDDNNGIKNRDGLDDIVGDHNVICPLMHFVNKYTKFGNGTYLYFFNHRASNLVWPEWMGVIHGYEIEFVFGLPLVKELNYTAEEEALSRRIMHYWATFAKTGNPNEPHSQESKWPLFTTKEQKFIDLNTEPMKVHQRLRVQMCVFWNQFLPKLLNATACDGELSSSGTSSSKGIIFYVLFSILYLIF
The nature of series [18]: Binding affinity to Fe3+ assessed as pFe at by potentiometric/UV-Vis spectrophotometric method.
Series [19] can be described thus: Binding affinity to Cu2+ assessed as pCu at pH 7.4 by potentiometric/UV-Vis spectrophotometric method.
For series [20], the target named is T1, Amyloid-beta precursor protein. Description: Inhibition of human amyloid beta (1 to 42) aggregation incubated for 24 hrs by ThT fluorescence assay. The conditions noted are these: concentration not given here.
Series [21] relates to Human immunodeficiency virus 1. Briefly: Antiviral activity against HIV1 BaL infected in human peripheral blood lymphocytes assessed as reduction in p24 production incubated for 5 days by ELISA. The series is classed as functional, organism-based. The conditions noted are these: Human immunodeficiency virus 1, BaL, PBL, 120 h. On the technique in general: An ELISA detects its analyte on a solid surface through an enzyme-linked reagent.

The nature of series [22]: Binding affinity to iron assessed as pFe3+ at pH 7.4.
The test system of series [23] is Rattus norvegicus. Description: Iron scavenging activity in 59Fe-ferritin-loaded Wistar rat assessed as iron mobilization efficacy at 450 umol/kg, po dosed 1 hr after 59Fe-ferritin injection and measured 24 hrs after 59Fe-ferritin injection by gamma counting method relative to control. The series is classed as functional. The following applies: dose 450 µmol/kg.

The nature of series [24]: Binding affinity to iron assessed as pFe3+ at pH 7.45.
Series [25] concerns Rattus norvegicus. Description: Iron scavenging activity in 59Fe-ferritin-loaded rat assessed as iron mobilization efficacy at 450 umol/kg, po dosed 1 hr after 59Fe-ferritin injection and measured 24 hrs after 59Fe-ferritin injection by gamma counting method relative to control. The conditions noted are these: dose 450 µmol/kg; time 23 hrs. Format: functional.

T1 sequence (P05067 whole entry): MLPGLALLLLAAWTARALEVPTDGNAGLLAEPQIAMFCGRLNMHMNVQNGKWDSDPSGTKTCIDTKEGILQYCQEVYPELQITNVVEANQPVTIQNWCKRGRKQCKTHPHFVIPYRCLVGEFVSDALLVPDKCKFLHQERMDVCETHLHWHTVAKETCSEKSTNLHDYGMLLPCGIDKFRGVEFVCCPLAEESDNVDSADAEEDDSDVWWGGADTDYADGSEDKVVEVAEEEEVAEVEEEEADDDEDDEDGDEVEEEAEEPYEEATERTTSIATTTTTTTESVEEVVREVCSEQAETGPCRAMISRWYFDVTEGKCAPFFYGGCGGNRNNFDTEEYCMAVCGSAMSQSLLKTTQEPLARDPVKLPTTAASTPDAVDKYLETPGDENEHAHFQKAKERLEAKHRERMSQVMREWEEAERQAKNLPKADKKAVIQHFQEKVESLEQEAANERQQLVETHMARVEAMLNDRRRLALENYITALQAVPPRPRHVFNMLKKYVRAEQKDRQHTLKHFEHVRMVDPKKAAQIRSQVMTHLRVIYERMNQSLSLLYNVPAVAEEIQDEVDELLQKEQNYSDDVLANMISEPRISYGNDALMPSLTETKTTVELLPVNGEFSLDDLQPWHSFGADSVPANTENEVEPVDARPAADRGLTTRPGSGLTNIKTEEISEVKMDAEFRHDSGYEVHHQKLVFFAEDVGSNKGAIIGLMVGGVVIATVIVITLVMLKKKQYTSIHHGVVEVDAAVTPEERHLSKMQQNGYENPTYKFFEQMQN

Turning to `Cc1c(O)c(=O)ccn1CCN1CCCCC1`, in [1], the logP (as a rule, a log measure of how a compound divides between an organic and an aqueous phase) amounted to 0.96.
`Oc1cccc2cccnc12` [OXYQUINOLINE]: the Activity in series [2] is recorded as -150 mV.
With `CC(=O)NCCOCCOCCn1ccc(=O)c(O)c1C`, in [3], the logD (commonly the decadic logarithm of the distribution of all forms, ionised or not, between an organic phase and buffer at a given pH) was -2.01.
With `Cc1c(OCc2ccccc2)c(=O)ccn1-c1ccc(CC(=O)NCc2ccc(-c3nc4ccccc4s3)cc2)cc1`, the inhibition (in general, how much of the control response was suppressed) in series [4] was found to be 68.9%. Moreover, the IC50 (as a rule, the concentration needed to halve the response being measured) in [5] is over 1000 µM; against Acetylcholinesterase [6], 13.8 µM.
On to `CCc1c(O)c(=O)ccn1CCCn1cc(COc2cc3ccccc3oc2=O)nn1`, for which the Activity in [7] came to 17.1.
Regarding `Cc1c(O)c(=O)ccn1CCCC(=O)N1CCCC1c1nc2ccccc2s1` (stereo unspecified), the inhibition in series [4] came to 59.3%. For the same compound, in series [8], the Activity came to 19.2. The IC50 in [5] is 148 µM; on Acetylcholinesterase [6], 14.7 µM.
As to `Cc1c(O)c(=O)ccn1CC(=O)NCCCNc1c2c(nc3ccccc13)CCCC2`, the IC50 on Acetylcholinesterase [9] worked out at 0.64 µM.
With `CCCCn1ccc(=O)c(O)c1C(=O)NCCCC(CCCNC(=O)c1c(O)c(=O)ccn1CCCC)(CCCNC(=O)c1c(O)c(=O)ccn1CCCC)NC(=O)CCC`, 32 µg/mL (≈ 37.6 µM) was the least that counted as inhibitory with Pseudomonas aeruginosa (MIC).
Take `O=c1cc(CNCCCCCCNc2ccnc3cc(Cl)ccc23)n(C2CC2)cc1OCc1ccccc1`: the IC50 turned out to be 0.064 µM with Plasmodium falciparum [10], 0.047 µM in the series on Plasmodium falciparum [11], 0.463 µM in the series with Plasmodium falciparum [12] and 0.505 µM in the series with Plasmodium falciparum [13].
In turn, `Cc1c(O)c(=O)ccn1CC(=O)NCCCNc1c2c(nc3cc(Cl)ccc13)CCCC2` gave an inhibition in series [4] of 95.2%. For the same compound, the EC50 (usually the concentration at which the effect is half-maximal) in series [14] was 1110 µM. This compound registered an IC50 against Acetylcholinesterase [9] of 0.86 µM.
For `Cc1c(O)c(=O)ccn1CC(=O)NCC(O)CNc1c2c(nc3ccccc13)CCCC2` (stereo unspecified), the inhibition in series [4] worked out at 86%. For the same compound, in series [14], the EC50 was 399 µM. Moreover, the Activity in [15] was found to be 21.7. Besides, the midpoint of inhibition at Acetylcholinesterase [9], the IC50, lay at 0.96 µM.
With `CCCC(=O)NC(CCCNC(=O)c1c(O)c(=O)ccn1CCO)(CCCNC(=O)c1c(O)c(=O)ccn1CCO)CCCNC(=O)c1c(O)c(=O)ccn1CCO`, the minimum inhibitory concentration (MIC) (in general, the lowest concentration that inhibits growth of the organism) with Escherichia coli was determined as 8 µg/mL (≈ 9.81 µM); in the series on Bacillus subtilis, 8 µg/mL (≈ 9.81 µM); in the series on Pseudomonas aeruginosa, 16 µg/mL (≈ 19.6 µM); against Staphylococcus aureus, 8 µg/mL (≈ 9.81 µM).
In the series on Pseudomonas aeruginosa, `CCCCCCn1ccc(=O)c(O)c1C(=O)NCCCC(CCCNC(=O)c1c(O)c(=O)ccn1CCCCCC)(CCCNC(=O)c1c(O)c(=O)ccn1CCCCCC)NC(=O)CCC` gave an MIC of 32 µg/mL (≈ 34.2 µM).
In turn, `Cc1c(OC(N)=O)c(=O)ccn1-c1ccccc1` returned a half-inhibitory concentration (IC50) at Acetylcholinesterase [16] of 48.8 µM.
For `CN(C)C(=O)c1cccc(O)c1O`, the Activity in [15] was 15.
For `COc1cccc2cc(C(=O)NCCn3ccc(=O)c(O)c3C)oc12`, the IC50 on Acetylcholinesterase [17] was 246 µM. Further, the Activity in [18] is 17.3; in series [19], 6.5. The concentration for a half-maximal effect (EC50) in series [5] was 199 µM. This compound also displayed an inhibition in [20] of 49.8%.
For `CCCC(=O)NC(CCCNC(=O)c1c(O)c(=O)ccn1C)(CCCNC(=O)c1c(O)c(=O)ccn1C)CCCNC(=O)c1c(O)c(=O)ccn1C`, the MIC in the series with Escherichia coli amounted to 8 µg/mL (≈ 11 µM); in the series on Bacillus subtilis, 8 µg/mL (≈ 11 µM); in the series with Pseudomonas aeruginosa, 16 µg/mL (≈ 22 µM); in the series with Staphylococcus aureus, 8 µg/mL (≈ 11 µM).
For the compound `CNC(=O)c1[nH]c(C)cc(=O)c1O`, the IC50 in series [21] is 20 µM. For the same compound, in [22], the Activity was 22.8. Also, in the series on Rattus norvegicus [23], the Efficacy is 50.1%.
Turning to `CCn1ccc(=O)c(O)c1C(C)O` (stereo unspecified), the Activity in series [24] is 21.4. Moreover, the Efficacy with Rattus norvegicus [25] is 54.5%.
Turning to `CNC(=O)c1c(O)c(=O)cc(C)n1C`, the IC50 in series [21] is 33.3 µM. In addition, the Activity in series [22] is 21.7. In the series with Rattus norvegicus [23], the Efficacy was found to be 58.7%.
In the series with Pseudomonas aeruginosa, `CCn1ccc(=O)c(O)c1C(=O)NCCCC(CCCNC(=O)c1c(O)c(=O)ccn1CC)(CCCNC(=O)c1c(O)c(=O)ccn1CC)NC(=O)[C@@H](N)CC(C)C` gave an MIC of 32 µg/mL (≈ 39.5 µM).
For `CC(=O)N(O)CCCCCNC(=O)CCC(=O)N(O)CCCCCNC(=O)CCC(=O)N(O)CCCCCN` [DEFEROXAMINE], the Activity in series [15] was 26.6; in series [2], -468 mV.
